Values of other authors in patent publication US20160347782A1, “4-methylcatechol Derivatives and Uses Thereof” (THANARES GMBH, priority 2011, published 2016).

Columns and labels:
[1] = system: normal human epidermal melanocytes
liver cells = liver cells in vitro; in the μmol range

Row | Growth of normal human epidermal melanocytes [1] | SMILES | Proliferation of melanoma cells (melanoma cells) | Inhibition of hepatocellular cholesterol synthesis (liver cells)
1 | without impairing | Cc1ccc(O)c(O)c1 [Example 4-MC, 4-Methylcatechol] | inhibits | inhibits
2 | – | O=c1c(O)c(-c2ccc(O)c(O)c2)oc2cc(O)cc(O)c12 [quercetin] | – | inhibits
